Where “and” joins values, the source holds several entries; their conditions need not be identical. Equal entries are not always repeated. Marks after values point to notes of the source that are not given here.
How the values were obtained:
[1] = tested on: spontaneous fungal infections and ulcers; experiment: Mice with spontaneous fungal infections and ulcers, Gentiana violet with or without rhHGF; type: in vivo; details: local Gentiana violet once; the HGF mouse also rhHGF 10 ng subcutaneously
Method: Two mice (23-25 g) with spontaneous fungal infections and ulcers on their backs were shaved and treated locally with Gentiana violet once. One of them was simultaneously treated with hepatocyte growth factor (rhHGF) 10 ng subcutaneously. The hair growth was fine as in the other places of body, in the mouse that received HGF and fungicidal treatment. […] This example confirms the morphogenic effects of HGF in recovering after treated infectious injuries (see FIG. 7).

[2] = tested on: chronic leg ulcers; type: in vivo, human
Method: HGF in gel form was applied locally once daily for seven days in 15 of 19 chronic leg ulcers in eleven elderly patients in a pilot study. All patients had previously been treated with conventional methods and their leg ulcers had been in a rather stable condition for between one and fourteen years. Any signs of allergy, discomfort or pain were reported daily.
(§1) Micro-circulation perfusion in ulcers compared to the intact contiguous skin was determined at the beginning, after one week and after three months (in 7 patients) and ulcer size and characteristics were also documented.
In contrast to the patients with unfavourable healing (non-responders) the healing process in the responders began during treatment and continued afterwards. There was a statistically significant correlation (r=0.94, p<0.002) between enhanced micro-circulation and ulcer area reduction in the treated ulcers. Simultaneously antibacterial treatment in the ulcers with signs of infection enhanced the therapy results considerably. […] Micro-circulatory perfusion, which might reflect the angiogenic effect of HGF, was positively correlated to ulcer area reduction. Local treatment by HGF seems to have positive effect on nearby, not locally treated, ulcers indicating systemic effects. […] HGF and representative antibacterial treatment have synergetic effects in treatment of chronic leg ulcers.

[3] = tested on: chronic leg ulcers; experiment: Micro-circulatory perfusion in ulcers by laser Doppler (LDPI); type: in vivo, human
Method: The micro-circulation within the ulcers was measured using LDPI. The LDPI system (PIMLO, Lisca Development AB, Sweden) utilises the Doppler principle by freely impinging coherent laser light onto the tissue and processing the backscattered, Doppler broadened, light to estimate the tissue perfusion without touching the skin. The perfusion estimate is proportional to the product of the mean velocity and the concentration of the moving blood cells.
as §1

[4] = tested on: normal hairless skin in mice; experiment: Local rhHGF on shaved normal hairless skin in mice, hair growth; type: in vivo
Method: Eighteen black mice (14-16 weeks old and 21-29 g weight) were shaved on their back, causing two 1×1 cm patches on the right and left side. They were then divided into 3 groups. Group I (n=6, females), Group 2 (n=6 males) and Group 3 (n=6, 3 males and 3 females). Group 1 were treated locally on the right side by 0.70 μg/kg (12-18 ng/cm^2 hairless skin) recombinant human hepatocyte growth factor (rhHGF) daily in 10 days. In order to prepare HGF preparations, recombinant human HGF (rhHGF) was provided commercially from R&D systems Inc., Minneapolis, USA. Group 2 (n=6 males) received 0.35 μg/kg/day (5-10 ng/cm^2 hairless skin) on the right side in 10 days. Group 3, non-treated, served as the control group. […] Although some significant differences were not obviously seen in the hair growth under treatment we were surprised to see that the animals in Group 1 did show a full double-sided hair growth in 5 animals 2 days after the treatment was ended (day 12). The same process in Group 2 and group 3 did take much a longer time (day 20 and day 21, respectively).

[5] = tested on: CCL-53.1; experiment: Restitution of scraped confluent monolayer; type: cell-based
Method: The confluent monolayer of CCL-53.1 was scraped off, forming long wounds. The area not covered by cells finally disappeared, and restitution (in control medium with 15% horse serum and 2.5 % FBS) was completed at 72 h. The addition of HGF together with the addition of antibiotic agent (streptomycin and penicillin) to the culture medium improved the restitution of the damaged area more rapidly than the control medium (10 times at 24 h) as well as to a medium including HGF without added antibiotic agents.

[6] = tested on: human skin fibroblasts; details: more than 1.0 ng/ml of HGF added to cultures media; cited from earlier work
[7] = contiguous non-treated ulcer in a locally treated patient, up to three months

CN(C)c1ccc(C(=C2C=CC(=[N+](C)C)C=C2)c2ccc(N(C)C)cc2)cc1.[Cl-] [Gentiana violet, reference compound]
Quality of hair growth [1]: rough and irregular

HGF: recombinant human HGF (rhHGF) provided commercially from R&D systems Inc., Minneapolis, USA
Heal % (T), median ([2]; 11 patients): 84%
Heal % (NT), first listed non-treated ulcer [2, 7]: 100/100% and 100%
Heal % (NT), second listed non-treated ulcer [2, 7]: 100/100% and 92%
Signs of allergy or malignancy ([2]; human, in vivo): No signs of allergy or malignancy were observed
Patients with complete or partial healing ([2]; local HGF treatment, ulcers incurable for up to fourteen years): 8/11
Cases with complete cure of ulcers ([2]; local HGF with appropriate oral antibiotics at the same time): at least 4 cases
Heal % (NT), mean, first listed ulcer ([2]; non-treated ulcers): 100%
Heal % (NT), mean, second listed ulcer ([2]; non-treated ulcers): 96%
Heal % (NT), median, first listed ulcer ([2]; non-treated ulcers): 100%
Heal % (NT), median, second listed ulcer ([2]; non-treated ulcers): 96%
Course of ulcer after superinfection with resistant bacteria ([2]; one patient with venous insufficiency, no appropriate antibiotics (penicillin allergy)): the ulcer increased dramatically in size
Heal % (T), the two ulcers of patient 7 with different healing ([2]; patient 7): (59-88%)♦
Heal % (T), mean ([2]; sum of total area reduction divided by sum of total area, 11 patients): 78* %
Ulcers with favourable healing (58-59%) ([2]; treated ulcers): two
Ulcers with excellent healing (84-99%) ([2]; treated ulcers, in four patients): four
Ulcers with complete healing (100% area reduction) ([2]; treated ulcers, in three patients): 5/15
Ulcers with minimal improvement (25-30%) or relapse ([2]; treated ulcers, three patients): four
Healing of the four contiguous non-treated ulcers ([2]; two patients): three healed completely and one excellent
Circ (NT) ratio, mean ([3]; non-treated ulcers): 0.9/ND ratio
Circ (NT) ratio, median ([3]; non-treated ulcers): 0.9/ND ratio
Circ (T) ratio, mean ([3]; treated ulcers): 1.12 ratio
Circ (T) ratio, median ([3]; treated ulcers): 1.23 ratio
Circ (T) ratio: relative change in local microcirculation ([3]; treated ulcers, before treatment vs one week later, one line per patient): 1.29 ratio and 1.23 ratio and 1.28 ratio and 0.77 ratio and 0.72 ratio and 0.97 ratio and 1.48 ratio
Signs of non-tolerance or diseases under or after treatment ([4]; 0.70 or 0.35 μg/kg/day locally, 10 days): None of the treated animals did show any sign of non-tolerance or diseases
Day of full double-sided hair growth ([4]; Group 1: 0.70 μg/kg locally daily in 10 days, in 5 animals): 12 days
Day of full double-sided hair growth ([4]; Group 2: 0.35 μg/kg/day locally in 10 days): 20 days
Local dose that accelerates hair growth ([4]; normal hairless skin in mice): not less than 0.7 μg/kg
Quality of hair growth [1]: fine
Restitution of the damaged area relative to control medium ([5]; HGF together with streptomycin and penicillin in the culture medium, at 24 h): 10 times
HGF concentration at which the effect is detectable ([5]; dose-dependent effect): ≥ 5 ng/mL
DNA synthesis [6]: doubled

Reference: patent publication US7601365B2, “Synergetic effects of HGF and antibacterial treatment” (Damavand Wound, AB, priority 2000, dated 2009)
